Source: US20240390284A1, “IONIZABLE LIPIDS” (BRISTOL-MYERS SQUIBB COMPANY, priority 2023, published 2024)

How the values were obtained:
[1] = LNP size (average radius), Wyatt Plate Reader III; assay type: physicochemical; conditions: LNP of ionizable lipid:DSPC:cholesterol:DMG-PEG 45:10:44:1 with Cas9 mRNA and sgRNA, 0.087 mg/ml each
Description: (§1) Lipid nanoparticles (LNPs) were generated by rapid mixing. A mixture containing ionizable lipid, DSPC, cholesterol, and DMG-PEG at a molar ratio of 45:10:44:1, respectively, in ethanol was mixed with an aqueous sample containing Cas9 mRNA and synthetic sgRNA in 100 mM sodium acetate. Molar fractions were maintained for each formulation while varying the ionizable lipid. After formulation, particles immediately neutralized by dilution into Phosphate Buffered Saline (PBS). LNP size was determined using a Wyatt Plate Reader III with default settings.

HEK293 FT cells = test: Cas9 mRNA/sgRNA LNP gene editing, amplicon sequencing indel percentage (CRISPR-DAV); assay type: cell-based; conditions: LNP formulation dosed at 20 uL into 5,000 HEK293 FT cells, four day incubation
Description: as §1
(§2) Particles were functionally tested using amplicon sequencing. For testing, each formulation was dosed at 20 uL into 5,000 HEK293 FT or Jurkat cells. After a four day incubation cells were lysed and the locus of interested was amplified with PCR primers. These PCR products are then prepared for sequencing and sequenced on a MiSeq. The sequencing data is then processed and analyzed using CRISPR-DAV, which outputs indel percentages. (Table 1) For general reference, see Xuning Wang, Charles Tilford, Isaac Neuhaus, Gabe Mintier, Qi Guo, John N Feder, Stefan Kirov, CRISPR-DAV: CRISPR NGS data analysis and visualization pipeline, Bioinformatics, Volume 33, Issue 23, December 012017, Pages 3811-3812.

Jurkat cells = test: as above; assay type: cell-based; conditions: LNP formulation dosed at 20 uL into 5,000 Jurkat cells, four day incubation
Description: as §1, §2

SMILES	average Radius (nm) rep1 [1] [nm]	average Radius (nm) rep2 [1] [nm]	Indel % rep1 HEK293 FT (HEK293 FT cells) [%]	Indel % rep2 Hek (HEK293 FT cells) [%]	Indel % rep1 Jurkat (Jurkat cells) [%]	Indel % rep2 Jurkat (Jurkat cells) [%]
CCCCC/C=C/C/C=C/CCCCCCCC1OC(CCN(C)C)OC1CCCCCCC/C=C/C/C=C/CCCCC (stereo not drawn) [Lipid 9, (2-{4,5-Bis [(8E,11E)-heptadeca-8,11-dien-1-yl]-1,3-dioxolan-2-yl}ethyl)dimethylamine]	105	101.525	84.41	66.39	15.29	10
CCCCC/C=C\C/C=C\CCCC1OC(CCN(C)C)OC1CCC/C=C\C/C=C\CCCCC (stereo not drawn) [Lipid 5, {2-[4,5-Bis-((4Z,7Z)-trideca-4,7-dienyl)-[1,3]dioxolan-2-yl]-ethyl}-dimethyl-amine]	94.25	90.275	0.09	0.12	0.11	0.1
CCCCC/C=C\C/C=C\CCCCCCCC1OC(CCN(C)C)OC1CCCCCCCCCCCCCCCCC (stereo not drawn) [Lipid 4, (2-{4-[(8Z,11Z)-heptadeca-8,11-dien-1-yl]-5-heptadecyl-1,3-dioxolan-2-yl}ethyl)dimethylamine]	153.05	150.55	53.08	62.46	34.09	19.69
CCCCCCCC/C=C/CCCCCCCC1OC(CCN(C)C)OC1CCCCCCC/C=C/CCCCCCCC (stereo not drawn) [Lipid 2, (2-{4,5-Bis [(8E)-heptadec-8-en-1-yl]-1,3-dioxolan-2-yl}ethyl)dimethylamine]	142.825	136.875	16.5	41.5	0.15	0.09
CCCCCCCC/C=C/CCCCCCCC1OC(CCN(C)C)OC1CCCCCCCCCCCCCCCCC (stereo not drawn) [Lipid 7, (2-{4-[(8E)-heptadec-8-en-1-yl]-5-heptadecyl-1,3-dioxolan-2-yl}ethyl)dimethylamine]	116	124.85	2.58	2.29	0.06	0.02
CCCCCCCC/C=C\CCCCCCCC1OC(CCN(C)C)OC1CCCCCCC/C=C\CCCCCCCC (stereo not drawn) [Lipid 3, (2-{4,5-Bis [(8Z)-heptadec-8-en-1-yl]-1,3-dioxolan-2-yl}ethyl)dimethylamine]	92.55	91.525	92.23	90.92	77.31	66.37
CCCCC/C=C\C/C=C\CCCCCCCC1OC(CCCN(C)C)OC1CCCCCCC/C=C\C/C=C\CCCCC (stereo not drawn) [Lipid 11]	122.675	109.475	93.59	95.87	70.3	65.07
CCCCCC=CCC=CCCCCCCCC1OC(CCN(C)C)OC1CCCCCCCCCCCCCCCCC (stereo in doubt) [Lipid 10, (2-{4-[(8Z,11Z)-heptadeca-8,11-dien-1-yl]-5-heptadecyl-1,3-dioxolan-2-yl}ethyl)dimethylamine]	177.3	129.475	51.22	63.9	1.75	1.04
CCCCC/C=C\C/C=C\CCCCCC1OC(CCN(C)C)OC1CCCCC/C=C\C/C=C\CCCCC (stereo not drawn) [Lipid 6, (2-{4,5-Bis [(6Z,9Z)-pentadeca-6,9-dien-1-yl]-1,3-dioxolan-2-yl}ethyl)dimethylamine]	98.825	91.175	30.63	8.87	13.16	18.09
CCCCCCCC/C=C\CCCCCCCC1OC(CCN(C)C)OC1CCCCCCCCCCCCCCCCC (stereo not drawn) [Lipid 8, (2-{4-[(8Z)-Heptadec-8-en-1-yl]-5-heptadecyl-1,3-dioxolan-2-yl}ethyl)dimethylamine]	135.075	146.35	67.32	74.04	2.26	0.37
